Test [1] deals with T1, PTPN9 (Homo sapiens, UniProt P43378).
T1 construct: made in house; host or cells: Escherichia coli Rosetta (DE3)
T1 sequence (P43378 277-581): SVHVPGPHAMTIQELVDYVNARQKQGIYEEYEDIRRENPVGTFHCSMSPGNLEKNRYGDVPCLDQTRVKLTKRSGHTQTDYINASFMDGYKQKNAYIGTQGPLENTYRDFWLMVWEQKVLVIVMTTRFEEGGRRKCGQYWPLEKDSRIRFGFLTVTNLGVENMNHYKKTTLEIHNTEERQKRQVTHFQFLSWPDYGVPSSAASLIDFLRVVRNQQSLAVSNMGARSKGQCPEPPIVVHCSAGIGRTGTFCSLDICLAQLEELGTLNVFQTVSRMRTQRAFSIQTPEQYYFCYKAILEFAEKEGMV
Kind of test: PTPN9 enzyme inhibition with DiFMUP substrate. Type of test: biochemical. The note with it: DiFMUP 220 µM, PTPN9 0.15 nM; NA: no activity. As to the method: (§1) The purification and kinetic analyses of PTPN9 and DUSP9 (Ser277–581) were performed following methods described in the literature, with slight modifications. PAGE analysis data and enzyme kinetic constants are presented in Figure S1 and Table S1, respectively. Enzyme activity in the presence or absence of the compounds was measured using DiFMUP, a representative PTP fluorogenic substrate. First, the inhibitory effects of compounds 1–3 were evaluated using 50 µM PTPN9 and 20 µM DUSP9. There was an increase in the inhibitory activity of compound 1 for both enzymes as the number of CH2 units increased from 9 to 14 (Figure 2A,B).
(§2) Next, the IC50 values of the compounds, which induce a 50% inhibition of DiFMUP hydrolytic enzyme activity, were determined (Table 1). The IC50 values were determined from the dose–response enzyme inhibition curves of each compound. The dose–response curves for compounds 1e and 1f against PTPN9 and DUSP9, respectively, are presented in Figure 2C,D. Dose–response curves were also obtained for the other compounds (Figures S2 and S3).
(§3) The methods employed for PTP overexpression and purification have been described in a previous study. In brief, human PTPN9 and DUSP9 were cloned into a pET28a vector (Merk Millipore, Darmstadt, Germany) containing a hexahistidine (His6) tag or a maltose-binding protein (MBP) tag in its N-terminus (see Supplementary Materials). Recombinant genes were separately transformed into Escherichia coli Rosetta (DE3) (Merk Millipore, Darmstadt, Germany), and the overexpression of each gene was induced via the addition of 0.1 mM IPTG (Ducherfa Biochemie, Haarlem, RV, USA). After 16 h of incubation at 18 °C, cell pellets were obtained via centrifugation (3570× g at 4 °C for 15 min), resuspended in lysis buffer (50 mM Tris, pH: 7.5, 500 mM NaCl, 5% glycerol, 0.025% 2-mercaptoethanol, and 1 mM phenyl-methylsulfonyl fluoride (PMSF)), and lysed by ultrasonication. Subsequently, cell lysates were centrifuged at 29,820× g for 30 min at 4 °C; then, the supernatant was collected and incubated with a cobalt affinity resin (TALON® Metal Affinity Resin, Takara Korea, Seoul, Korea). After 1 h of incubation at 4 °C, the desired proteins were eluted by adding the lysis buffer supplemented with 100 mM imidazole. Samples were stored at –80 °C until use.
(§4) The enzymatic activities of purified PTPN9 and DUSP9 were measured using 6,8-difluoro-4-methylumbelliferyl phosphate (DiFMUP), the most widely used fluorogenic PTP substrate in the literature. To determine KM values, PTPN9 (0.15 nM) and DUSP9 (200 nM) were added to a reaction buffer (20 mM Bis-tris, pH: 7.0, 150 mM NaCl, 2.5 mM dithiothreitol (DTT), and 0.01% Triton X-100) containing DiFMUP (800, 400, 200, 100, 50, 25, 12.5, or 6.25 μM) in a 96-well black plate. The final reaction volume was 100 µL. The fluorescence intensity was continuously monitored for 10 min (Ex/Em = 355/460 nm) on a Victor™ X4 multilabel plate reader (Perkin Elmer, Norwalk, CT, USA). KM values were obtained using Lineweaver–Burk plots analysis.
(§5) To evaluate the enzyme inhibitory effects of GA and its analogs, 10 µl of the enzyme stock solution (1.5 nM PTPN9 and 2 µM DUSP9) in the reaction buffer was added into the mixture of DiFMUP (to a final concentration of 220 µM and 90 µM for PTPN9 and DUSP9, respectively) and each compound (to a final concentration of 50 µM and 20 µM for PTPN9 and DUSP9, respectively) was added to the reaction buffer. Enzyme activity was measured as described above. Half-inhibitory concentration (IC50) values were determined under similar conditions, except for the concentrations of the inhibitors (200, 100, 50, 25, 12.5, 6.25, or 3.125 µM for PTPN9 and 25, 12.5, 6.25, 3.125, 1.563, 0.782, or 0.391 µM for DUSP9). The dose-dependent curve was fitted to the four-parameter logistic regression equation, (y = a + (b – a)/(1 + (x/c)^d), to obtain IC50 values using the Kaleida Graph software Ver. 4.1.3. (Synergy Software Inc, PA, USA).

The target in test [2] is T2, DUSP9 (Homo sapiens, UniProt Q99956).
T2 construct: made in house; host or cells: Escherichia coli Rosetta (DE3)
T2 sequence (Q99956 1-384): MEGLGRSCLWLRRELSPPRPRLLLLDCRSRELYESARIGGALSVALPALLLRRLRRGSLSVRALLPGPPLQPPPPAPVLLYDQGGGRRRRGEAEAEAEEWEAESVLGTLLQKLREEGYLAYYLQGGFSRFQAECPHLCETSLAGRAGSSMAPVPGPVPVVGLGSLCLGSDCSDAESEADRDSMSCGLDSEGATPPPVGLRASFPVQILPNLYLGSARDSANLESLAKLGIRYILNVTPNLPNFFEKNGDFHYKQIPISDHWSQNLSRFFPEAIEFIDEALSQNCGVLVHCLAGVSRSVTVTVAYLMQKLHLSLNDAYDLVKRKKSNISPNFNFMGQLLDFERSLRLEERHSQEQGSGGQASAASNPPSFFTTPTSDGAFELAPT
As to the kind of experiment: DUSP9 enzyme inhibition with DiFMUP substrate. It counts as biochemical. The note with it: DiFMUP 90 µM, DUSP9 200 nM; NA: no activity. As to the method: as §1, §2, §3, §4, §5

Test [3] deals with Akt phosphorylation in PA-induced insulin-resistant C2C12 cells. Kind of test: Palmitic acid-induced insulin resistance in C2C12 myotubes (p-Akt). Type of test: cell-based, mouse. The note with it: PA (250 µM, 16 h)-treated C2C12, 5 μM compound for 30 min with 100 nM insulin. As to the method:
Since insulin plays an important role in regulating glucose metabolism through the redistribution of GLUT4 from intracellular vesicles to the cell surface, it is important to describe the interaction between 1e and insulin in the Akt pathway. […] Next, we evaluated the protective effects of 1e against PA-induced insulin resistance in C2C12 myotubes. To generate an insulin resistance model, C2C12 myotubes were treated with 250 µM PA in a serum-free medium for 16 h. Akt phosphorylation levels in PA-treated C2C12 cells decreased by 50% compared to levels in normal C2C12 cells (Figure 6C). Furthermore, in the presence of insulin and GA, Akt phosphorylation levels decreased only by 30% compared to levels in normal cells. […] In addition, the GA analogs induced no cytotoxic effects in C2C12 muscle cells (data not shown). […] The expression levels of glucose uptake-related proteins were determined via Western blotting, as previously described. In brief, differentiated 3T3-L1 cells were plated in six-well plates at a 1.5 × 10^4 cells/well density in a final volume of 2 mL. […] Secondary antibodies were added to the membranes at a concentration of 1:2000 for 1 h at room temperature, and immunoreactive bands were detected via ECL (GE Healthcare Korea Co., Ltd., Incheon, Korea). […]

For `CCCCCCCCCCCCCc1cccc(O)c1C(=O)O` [GA, Ginkgolic acid (C13:0), reference compound], the figures for the half-maximal inhibitory concentration (IC50) in test [1] and in test [2] were 21.8 ± 0.45 µM and 3.64 ± 0.11 µM, respectively. For the same compound, the “decrease of Akt phosphorylation levels compared to normal cells” value in test [3] stood at 30%.

The values above are taken from article PMC8999917, “Structure–Activity Relationship of Synthetic Ginkgolic Acid Analogs for Treating Type 2 Diabetes by PTPN9 Inhibition” (International Journal of Molecular Sciences, 2022).
